The LD50 is the dose at which mortality reaches 50%. As usually defined, the half-life is the time needed for the level to fall by half in the phase considered.

The target in one data set is T1, human plasma kallikrein (Homo sapiens, UniProt P03952).
T1 construct: 50 µl of 0.12 units/ml human plasma kallikrein solution
The data set is described as follows: Anti-plasma kallikrein activity: inhibition of S-2302 degradation. In kind it is biochemical. Conditions: substrate S-2302, 37°C, pH 7.8; read-out: Plasma kallikrein S-2302 (I50). As to the method: 2) Assay of anti-plasma kallikrein activity Assay method of inhibition of S-2302 degradation
The test substance was dissolved in a 0.05 M Tris-HC1 (pH 7.8) buffer to make a total volume of 400 µl, and 50 µl of a 2 mM S-2302 solution was added to the solution. After incubation at 37°C for 5 minutes in an incubator, an addition of 50 µl of 0.12 units/ml human plasma kallikrein solution, and incubation at 37°C for 5 minutes, the reaction was terminated by an addition of 50 µl of 50% acetic acid.

Another data set deals with human urokinase (Homo sapiens, UniProt P00749). Briefly: Anti-urokinase activity: inhibition of S-2444 degradation. It counts as biochemical. Conditions: substrate S-2444, 37°C, pH 8.8; read-out: Urokinase S-2444 (I50). As to the method: 3) Assay of anti-urokinase activity Assay method of inhibition of S-2444 degradation
The test substance was dissolved in a 0.05 M Tris-HC1 (pH 8.8) buffer to make a total volume of 400 µl, and 50 µl of a 1 mM S-2444 solution was added to the mixture. After incubation at 37°C for 5 minutes in an incubator, an addition of 50 µl of 500 units/ml human urokinase solution, and incubation at 37°C for 5 minutes, the reaction was terminated by an addition of 50 µl of 50% acetic acid.

Data set [1] deals with experimental pancreatitis. The data set is described as follows: Effect on experimental pancreatitis (sodium taurochorate + trypsin into the common bile duct), survival ratio. It counts as in vivo, SD-rats. Also noted: Effect on experimental pancreatitis (100 mg/kg p.o.) After 24 hours / Effect on experimental pancreatitis (100 mg/kg p.o.) After 48 hours / Effect of existing control drug on experimental pancreatitis After 24 hours: unit not given here. Conditions: rat; for Effect on experimental pancreatitis Survival ratio(%) After 24 hours / Effect on experimental pancreatitis Survival ratio(%) After 48 hours: 80 μg/kg/min. x 80 min. continuous infusion; for Effect on experimental pancreatitis (100 mg/kg p.o.) After 24 hours / Effect on experimental pancreatitis (100 mg/kg p.o.) After 48 hours: 100 mg/kg p.o. 30 minutes before pancreatitis. An excerpt: [II] Effect on experimental pancreatitis
SD-rats, body weight of about 200 g were, starved overnight, and 10 to 24 animals were used in one group. Sodium pentobarbital was intraperioneally administered to anesthetize each rat, and then a cannula was inserted to the femoral vein for the administration of the test substance. After abdominal surgery, the bile duct was blocked at a part thereof proximate to the liver, by a clip, a polyethylene tube was inserted to the common bile duct at a part thereof most proximate to the duodenum, and 0.1 ml of solution containing 2 mg sodium taurochorate and 1000 U trypsin dissolved in physiological saline was injected retrogrodely. After removal of the clip and tube, the common bile duct was ligated and the abdomen was closed. Note, the test substance was dissolved in an injective 5% glucose solution, and in the case of a continuous infusion, the solution was administered over 80 minutes starting from 10 minutes before the generation of pancreatitis. In the case of oral administration, the test substance was administered through an oral catheter 30 minutes before the generation of pancreatitis. After 24 hours and 48 hours from the generation of pancreatitis, the survival ratio of the animals was calculated and compared with a control group.

The next data set can be described thus: in vivo. The settings on record: mouse, intravenous, ICR male mice, up-and-down method, read-out: Acute toxicity (LD50). As to the method: ICR male mice 5 to 10 weeks old were used. The test substance was dissolved in a 5% dimethylsulfoxide aqueous solution, and the solution was intravenously administered in an amount of 0.1 to 0.2 ml/10 g body weight. An LD50 value was calculated by up-and-down method.

Data set [2] in a line: Measurement of half life in blood. In kind it is in vivo. Conditions: rat, iv; administered to the tail vein, SD-rats, plasma, HPLC. The procedure:
[VI] Measurement of half life in blood
SD-rats 6 to 7 weeks old were used. The test substance was dissolved in an injective 5% glucose solution and administered to the tail vein. After the administration, blood samples were periodically obtained from the great vein and placed into heparinized test tubes. Plasma was separated by centrifugation and the test substance was extracted with ethyl acetate. After removal of the solvent, the residue was dissolved in 200 µl of methanol, and analyzed by high performance liquid chromatography. From the change of the concentration of the test substance in blood with time, a half life thereof in blood was calculated.

Data set [3] has as its target T2, bovine factor Xa (Bos taurus, UniProt P00743).
T2 construct: 0.05 ml of 0.3 vial/ml bovine factor Xa
The data set is described as follows: Anti-FXa activity: inhibition of S-2222 degradation. In kind it is biochemical. The settings on record: Table 3-2, existing control drugs; substrate printed as S-2238; read-out: FXa S-2238 (I50).

Data set [4] has as its target T3, human plasmin (Homo sapiens, UniProt P00747).
T3 construct: 50 µl of 0.2 casein units/ml of human plasmin
Briefly: Anti-plasmin activity: inhibition of S-2251 degradation. In kind it is biochemical. The settings on record: substrate S-2251, 37°C, pH7.4; read-out: Plasmin S-2251 (I50). The procedure:
ii) Assay method of inhibition of S-2251 degradation
The test substance was dissolved in a 0.05 M Tris-HC1 (pH7.4) buffer to make a total volume of 400 µl, and 50 µl of a 3 mM S-2251 solution was added to the solution. The mixture was incubated at 37°C for 5 minutes in an incubator, and after the addition of 50 µl of 0.2 casein units/ml of human plasmin, and incubation at 37°C for 4 minutes, the reaction was terminated by an addition of 50 µl of 50% acetic acid.

Data set [5] concerns the target T3, human plasmin. Briefly: Anti-plasmin activity: inhibition of fibrinolysis (fibrin clot lysis time). Conditions: concentration giving a fibrin clot lysis time twice that of control, 37°C, pH7.4; read-out: Plasmin Fibrin (I50). In kind it is biochemical.
The target in data set [6] is T2, bovine factor Xa. Briefly: Anti-FXa activity: inhibition of S-2222 degradation. It counts as biochemical. The settings on record: substrate S-2222, 37°C, pH 8.3; read-out: FXa S-2222 (I50). As to the method: 4) Assay of anti-FXa activity Assay method of inhibition of S-2222 degradation
To 0.4 ml of the test substance dissolved in a 0.05 M Tris-HC1 (pH 8.3) buffer is added 0.05 ml of 3 mM S-2222 solution, and after incubation at 37°C for about 4 minutes, an addition of 0.05 ml of 0.3 vial/ml bovine factor Xa, and a reaction at 37°C for 4 minutes, the - reaction was terminated by adding 0.05 ml of 50% acetic acid.

The next data set concerns experimental DIC. Briefly: Effect on experimental DIC and MOF (endotoxin-induced). It counts as in vivo, SD-rats. The settings on record: rat, 4 hours after endotoxin 10 mg/kg; for CPK: Table 5-1. As to the method:
[III] Effect on experimental DIC
SD-rats, body weight of about 200 g, were starved overnight. Sodium pentobarbital was intraperioneally administered to anesthetize a rat, and then a cannula was inserted to the femoral vein, and the test substance dissolved in an injective 5% glucose solution was continually infused. Then, 10 minutes from the start of the injection, endotoxin (E. coli 0127:B8, Difco, U.S.) dissolved in physiological saline was injected through the tail vein to an amount of 10 mg/kg body weight, and 4 hours from the administration of endotoxin, the abdomen was opened, blood was obtained from the abdominal aorta, and platelets (Plt), fibrinogen (Fbg), fibrin degradation product (FDP), glutamic oxaloacetic transamirase (GOT), creatinine phosphokinase (CPK), and blood urin nitrogen (BUN) were measured.

The next data set has as its system experimental shock. Briefly: Effect on experimental shock (endotoxin-induced), survival ratio. It counts as in vivo, ICR-mice. Conditions: dose of 30 mg/kg intraperitoneally 15 minutes before endotoxin 40 mg/kg, mouse. As to the method:
[IV] Effect on experimental shock
ICR-mice, body weight of about 25 g, were starved overnight. The test substance was dissolved in an injective 5% glucose solution and intraperioneally administered, and 15 minutes later, endotoxin (E. coli 0127:B8, Difco, U.S.) dissolved in a physiological saline was intraperioneally administered to an amount of 40 mg/kg body weight.

Read-outs that look alike come from different tables or passages of the source.

T1 sequence (P03952 391-638 limits assumed): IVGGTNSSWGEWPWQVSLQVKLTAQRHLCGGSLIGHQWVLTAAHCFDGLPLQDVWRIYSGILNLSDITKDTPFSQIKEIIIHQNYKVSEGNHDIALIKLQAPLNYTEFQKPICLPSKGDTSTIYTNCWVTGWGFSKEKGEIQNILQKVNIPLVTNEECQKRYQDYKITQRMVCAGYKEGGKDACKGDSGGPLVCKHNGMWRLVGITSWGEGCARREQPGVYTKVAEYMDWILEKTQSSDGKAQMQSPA
T1 sequence (P03952 20-390 partner limits assumed): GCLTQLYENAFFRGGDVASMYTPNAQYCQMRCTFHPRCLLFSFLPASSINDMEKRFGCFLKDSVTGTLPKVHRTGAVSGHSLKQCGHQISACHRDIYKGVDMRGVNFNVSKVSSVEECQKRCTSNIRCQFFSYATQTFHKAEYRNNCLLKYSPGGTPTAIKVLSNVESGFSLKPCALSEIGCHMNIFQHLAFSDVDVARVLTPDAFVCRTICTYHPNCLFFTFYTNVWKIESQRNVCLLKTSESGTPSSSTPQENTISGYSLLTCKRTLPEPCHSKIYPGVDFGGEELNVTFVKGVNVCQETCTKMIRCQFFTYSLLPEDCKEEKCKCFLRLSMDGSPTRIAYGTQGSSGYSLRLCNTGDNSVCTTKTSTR
T3 sequence (P00747 581-810 limits assumed): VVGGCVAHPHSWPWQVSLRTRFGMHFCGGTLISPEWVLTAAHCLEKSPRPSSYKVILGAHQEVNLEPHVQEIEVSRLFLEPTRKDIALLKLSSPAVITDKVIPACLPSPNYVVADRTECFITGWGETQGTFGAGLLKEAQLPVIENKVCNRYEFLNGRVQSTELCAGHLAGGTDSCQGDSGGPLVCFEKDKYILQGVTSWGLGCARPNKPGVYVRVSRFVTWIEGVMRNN
T3 sequence (P00747 97-580 partner limits assumed): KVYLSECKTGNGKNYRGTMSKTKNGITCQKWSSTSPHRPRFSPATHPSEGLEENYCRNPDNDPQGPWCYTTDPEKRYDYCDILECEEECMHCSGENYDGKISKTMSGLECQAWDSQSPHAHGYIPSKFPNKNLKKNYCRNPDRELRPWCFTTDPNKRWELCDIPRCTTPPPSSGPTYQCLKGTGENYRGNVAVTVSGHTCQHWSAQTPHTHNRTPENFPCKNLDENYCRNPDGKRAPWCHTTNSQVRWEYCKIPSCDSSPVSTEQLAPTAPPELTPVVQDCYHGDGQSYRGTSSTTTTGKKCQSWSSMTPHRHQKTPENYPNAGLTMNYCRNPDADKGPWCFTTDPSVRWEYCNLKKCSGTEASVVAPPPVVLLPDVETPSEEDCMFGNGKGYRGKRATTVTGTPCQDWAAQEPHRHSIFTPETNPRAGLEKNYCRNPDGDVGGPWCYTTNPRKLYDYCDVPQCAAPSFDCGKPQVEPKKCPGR
T2 sequence (P00743 234-492 limits assumed): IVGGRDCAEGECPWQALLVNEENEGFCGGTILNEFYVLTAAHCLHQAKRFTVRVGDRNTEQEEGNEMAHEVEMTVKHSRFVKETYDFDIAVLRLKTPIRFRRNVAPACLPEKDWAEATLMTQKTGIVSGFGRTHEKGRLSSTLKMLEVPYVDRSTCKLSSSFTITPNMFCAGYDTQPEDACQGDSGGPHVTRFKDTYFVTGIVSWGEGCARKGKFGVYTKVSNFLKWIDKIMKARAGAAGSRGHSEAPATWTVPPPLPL
T2 sequence (P00743 41-180 partner limits assumed): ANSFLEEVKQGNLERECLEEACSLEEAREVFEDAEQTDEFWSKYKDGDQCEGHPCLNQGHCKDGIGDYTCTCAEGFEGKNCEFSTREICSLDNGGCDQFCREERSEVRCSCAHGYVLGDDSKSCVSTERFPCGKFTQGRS

In the case of `N=C(N)c1ccc2cc(OC(=O)c3ccc(N=C(N)N)cc3)ccc2c1` [FUT-175, nafamostat mesilate, reference compound], the figures for the IC50 on human plasma kallikrein, on human urokinase and at bovine factor Xa [3] were 80 nM, 0.01 µM and 5.8 µM, respectively. In addition, in [1] (survival ratio, 50 μg/kg/min x 80 min), the “Effect of existing control drug on experimental pancreatitis After 24 hours” value was determined as 33.3. Moreover, the LD50 in the data set “in vivo” stood at 24 mg/kg. The half-life in data set [2] was 2 to 3 min.
With `CC(=O)c1ccc(NC(=O)[C@H](Cc2ccc(OCc3ccccn3)cc2)NC(=O)[C@H]2CC[C@H](CN)CC2)cc1` [Compound 6], the IC50 on human plasmin [4] came to 2.7 µM. The IC50 at human plasmin [5] is 1400 nM. In addition, the IC50 on human plasma kallikrein came to 2000 nM. At human urokinase, the IC50 came to 75 µM. Further, the IC50 at bovine factor Xa [6] worked out at 160 µM. In data set [1], the “Effect on experimental pancreatitis Survival ratio(%) After 24 hours” value is 62.5% and the “Effect on experimental pancreatitis Survival ratio(%) After 48 hours” value came out at 54.1%. Also, in data set [1] (survival ratio), the “Effect on experimental pancreatitis (100 mg/kg p.o.) After 24 hours” value amounted to 66.7 and the “Effect on experimental pancreatitis (100 mg/kg p.o.) After 48 hours” value was determined as 53.3. In the data set with experimental DIC (Dose 1 μg/kg/min infusion), this compound showed a BUN of 36 ± 2 mg/dL, an FDP of 32 to 65 µg/mL, a Fbg of 140 ± 18 mg/dL and a GOT of 217 ± 29 U/ml. The Plat with experimental DIC (Dose 1 μg/kg/min infusion) is 68 ± 11 x 10^4/μl. In the data set on experimental DIC (Dose 10 μg/kg/min infusion), this compound displayed a BUN of 26 ± 2 mg/dL, an FDP of 8 to 32 µg/mL, a Fbg of 179 ± 15 mg/dL and a GOT of 196 ± 28 U/ml. Further, in the data set with experimental DIC (Dose 10 μg/kg/min infusion), the Plat is reported as 95 ± 14 x 10^4/μl and the CPK is on record as 22 ± 6 U/1. The “Effect on experimental shock (Survival ratio (%) after 24 hours)” value in the data set on experimental shock was 70%. The LD50 in the data set “in vivo” turned out to be 85 mg/kg. Further, in data set [2], the half-life turned out to be 12.2 min.
Consider `NC[C@H]1CC[C@H](C(=O)N[C@@H](Cc2ccc([N+](=O)[O-])cc2)C(=O)Nc2ccc(C(=O)c3ccccc3)cc2)CC1` [Compound 10], for which the IC50 on human plasmin [4] came out at 7 µM. Moreover, the IC50 at human plasmin [5] is 1800 nM. The IC50 at human plasma kallikrein amounted to 2700 nM. For the same compound, the IC50 at human urokinase came to 5 µM. In [1], the “Effect on experimental pancreatitis Survival ratio(%) After 24 hours” value was 50.0% and the “Effect on experimental pancreatitis Survival ratio(%) After 48 hours” value turned out to be 33.3%. In data set [1] (survival ratio), the “Effect on experimental pancreatitis (100 mg/kg p.o.) After 24 hours” value came out at 66.7 and the “Effect on experimental pancreatitis (100 mg/kg p.o.) After 48 hours” value was 53.3. In the data set with experimental DIC (Dose 10 μg/kg/min infusion), the BUN came out at 32 ± 2 mg/dL, the FDP was in the range of 16 to 128 µg/mL, the Fbg was 109 ± 30 mg/dL and the GOT was 302 ± 29 U/ml. The Plat in the data set with experimental DIC (Dose 10 μg/kg/min infusion) is 68 ± 8 x 10^4/μl. In the data set with experimental DIC (Dose 100 μg/kg/min infusion), this compound displayed a BUN of 30 ± 2 mg/dL, an FDP of 16 to 128 µg/mL, a Fbg of 128 ± 32 mg/dL and a GOT of 258 ± 60 U/ml. Also, in the data set with experimental DIC (Dose 100 μg/kg/min infusion), the Plat is given as 66 ± 10 x 10^4/μl and the CPK amounted to 20 ± 5 U/1. In the data set with experimental shock, the “Effect on experimental shock (Survival ratio (%) after 24 hours)” value is 79%. In addition, the LD50 in the data set “in vivo” is 85 mg/kg. Moreover, the half-life in [2] is 6.8 min.

The values are drawn from patent EP0369035A1, “AGENT FOR TREATING PANCREATITIS OR THE LIKE” (priority 1988, dated 1989).
